Results: US20030162788A1, “Combination of MTP inhibitors or apoB-secretion inhibitors with fibrates for use as pharmaceuticals” (Boehringer Ingelheim Pharma KG, priority 2002, published 2003)

How the values were obtained:
fa/fa rats [1] = assay: Cholesterol and triglycerides in the plasma of hyperlipaemic fa/fa rats after oral treatment; conditions: for lowering of cholesterol in the plasma compared with the control group / lowering of triglycerides in the plasma compared with the control group: Example A, female fa/fa rats 33 weeks old, MTP inhibitor 1 mg/kg once a day (four times), bezafibrate 100 mg/kg twice a day (eight times), blood 24 hours after last MTP inhibitor dose or 15 hours after last fibrate dose
Method: The effectiveness of the combination of an MTP inhibitor with a fibrate and the effect on hepatic steatosis and liver toxicity can be tested in vivo as follows. Hyperlipaemic rats (e.g. of the rat strain fa/fa) are given the active substances as a suspension in 0.45% NaCl and 5% polyethyleneglycol 400 by oral route using an oesophageal tube (5 ml/kg of body weight). The substances may be given once or several times a day for a period of 4 days, or alternatively over a longer period. The day after the last dose, blood samples are taken by puncturing the retroorbital venous plexus and plasma is prepared. The concentrations of cholesterol and triglycerides in the plasma and the activities of the liver enzymes (e.g. ALT, AST, GLDH) are determined by well-known methods of clinical chemistry. These substrates and enzymes in the plasma may be measured for example with a HITACHI 917 Automatic Analyzer using reagents supplied by Roche Diagnostics (Mannheim) in accordance with the following procedures laid down by Roche Diagnostics:
cholesterol: BM/HITACHI 917, Boehringer Mannheim System No. 1 491 458
triglycerides: BM/HITACHI 917, Boehringer Mannheim System No. 1 730 711.
Female fa/fa rats 33 weeks old were either treated four times with an MTP inhibitor (given orally once a day at 7 a.m.) or treated eight times with a fibrate (given twice a day by oral route at 7 a.m. and 4 p.m.) A third group were given both the MTP inhibitor and the fibrate. The MTP inhibitor was 9-[4-[4-[2-(4-trifluoromethylphenyl)benzoylamino]piperidin-1-yl]butyl]-N-(2,2,2-trifluoro-ethyl)-9H-fluorene-9-carboxamide in a dosage of 1 mg/kg. The fibrate was bezafibrate in a dosage of 100 mg/kg. 24 hours after the last dose of the MTP inhibitor or 15 hours after the last dose of the fibrate blood samples were taken from the animals and the cholesterol, triglycerides and liver enzymes in the plasma were measured.
Male fa/fa rats 32 weeks old were either treated four times with an MTP inhibitor (given orally once a day between about 7 and 8 a.m.) or treated eight times with a fibrate (given twice a day by oral route between about 7 and 8 a.m. and at 4 p.m.) Another group were given both the MTP inhibitor and the fibrate. […] The fibrate was fenofibrate in a dosage of 100 mg/kg. 24 hours after the last dose of the MTP inhibitor or 15 hours after the last dose of fenofibrate, blood was taken from the animals and the levels of cholesterol, triglycerides and liver enzymes in the plasma were measured.
Male fa/fa rats 33 weeks old were either treated four times with an MTP inhibitor (given orally once a day between about 7 and 8 a.m.) or treated eight times with a fibrate (given twice a day by oral route between about 7 and 8 a.m. and at 4 p.m.) Another group were given both the MTP inhibitor and the fibrate. […] The fibrate was fenofibrate in a dosage of 100 mg/kg. 24 hours after the last dose of the MTP inhibitor or 15 hours after the last dose of fenofibrate, blood was taken from the animals and the levels of cholesterol, triglycerides and liver enzymes in the plasma were measured.

fa/fa rats [2] = assay: Hepatic steatosis: lipid content (triglycerides, free fatty acids) in the liver of fa/fa rats; assay type: in vivo, rat; conditions: Example B; female fa/fa rats 38 weeks old; oral; MTP inhibitor 0.3 mg/kg once a day (four times); livers removed 24 hours after last dose
Method: In addition, the liver may be removed in order to determine the hepatic steatosis by measuring the lipid content (triglycerides, free fatty acids, cholesterol) in this organ. To do this, 200 mg of liver are homogenised after the addition of 2 ml of isopropanol and extracted for 10 min with shaking. The extract is centrifuged for 10 min at 4° C. and 4000 rpm and one aliquot of the supernatant is used to determine the lipid parameters. The lipids in the liver are measured using commercially available test kits following the manufacturer's instructions (for triglycerides: Triglycerid-Duo S made by BIOMED Labordiagnostik GmbH, Oberschleiβheim; for cholesterol: Cholesterin-Duo S made by BIOMED Labordiagnostik GmbH, Oberschleiβheim; for free fatty acids: NEFA C made by Wako Chemicals GmbH, Neuss).
The MTP inhibitor leads to an increase in the triglycerides and the free fatty acids in the liver (FIGS. 3a and 3b). By combining it with the fibrate, the lipid accumulation caused by the MTP inhibitor is lowered by about 50% (triglycerides in the liver) or by about 80% (free fatty acids in the liver).

fa/fa rats [3] = assay: Activities of liver enzymes (ALT, AST, GLDH) in the plasma of fa/fa rats (liver toxicity); assay type: in vivo, rat; conditions: for ALT [U/I], MW ± SEM / AST [U/I], MW ± SEM: plasma, fenofibrate 100 mg/kg twice a day (eight times)
Description: The horizontal line in the diagram indicates three times the level in the control group and is interpreted as the threshold value for a clearly toxic side effect.).

[4] = Example A, female fa/fa rats 33 weeks old, oral, MTP inhibitor 1 mg/kg once a day (four times)
[5] = Example D, male fa/fa rats 33 weeks old, compound (a) 3 mg/kg once a day, fenofibrate 100 mg/kg twice a day
[6] = Example D, male fa/fa rats 33 weeks old, compound (a) 3 mg/kg oral once a day
[7] = Example D, male fa/fa rats 33 weeks old, oral, compound (a) 3 mg/kg once a day (four times)
[8] = Example C, male fa/fa rats 32 weeks old, compound (c) 10 mg/kg once a day, fenofibrate 100 mg/kg twice a day
[9] = Example C, male fa/fa rats 32 weeks old, compound (c) 10 mg/kg oral once a day
[10] = Example C, male fa/fa rats 32 weeks old, oral, compound (c) 10 mg/kg once a day (four times)
[11] = Example D, male fa/fa rats 33 weeks old, fenofibrate 100 mg/kg twice a day

`O=C(NC1CCN(CCCCC2(C(=O)NCC(F)(F)F)c3ccccc3-c3ccccc32)CC1)c1ccccc1-c1ccc(C(F)(F)F)cc1` [9-[4-[4-[2-(4-trifluoromethylphenyl)benzoylamino]piperidin-1-yl]butyl]-N-(2,2,2-trifluoro-ethyl)-9H-fluorene-9-carboxamide] was tested, and the “lowering of cholesterol in the plasma compared with the control group” value (fa/fa rats [1]) was 29%, the “lowering of triglycerides in the plasma compared with the control group” value (fa/fa rats [1]) was 84% and the “free fatty acids in the liver” value (fa/fa rats [2]) was “increase”. The “triglycerides in the liver” value (fa/fa rats [2]) was “increase”, the “increase in the ALT activity in the blood plasma compared with the control group” value (fa/fa rats [3]; [4]) was 5.2 fold and the “increase in the GLDH activity in the blood plasma compared with the control group” value (fa/fa rats [3]; [4]) was 7.7 fold.

For `Cn1cc(NC(=O)c2ccccc2-c2ccc(C(F)(F)F)cc2)cc1C(=O)NCC#Cc1ccc(-c2ccccc2)cc1` [Compound (a), N-[3-(Biphenyl-4-yl)-prop-2-ynyl]-4-(4′-trifluoromethylbiphenyl-2-carbonylamino)-1-methyl-pyrrole-2-carboxylic acid amide], the “reduction of cholesterol in the plasma compared with the control group” value (“reduction of cholesterol in the plasma” below) (fa/fa rats [1]; [5]) was 26%, the “reduction of triglycerides in the plasma compared with the control group” value (from here on “reduction of triglycerides in the plasma”) (fa/fa rats [1]; [5]) was 76% and the “increase in the activity of ALT in the plasma” value (fa/fa rats [3]; [6]) was 5.1 fold. The “increase in the activity of AST in the plasma” value (fa/fa rats [3]; [6]) was 6.7 fold, the “ALT [U/I], MW ± SEM” value (fa/fa rats [3]; [7]) was 232.8 ± 67.8 U/I and the “AST [U/I], MW ± SEM” value (fa/fa rats [3]; [7]) was 218.4 ± 57.1 U/I.

In the case of `Cn1cc(NC(=O)c2ccccc2-c2ccc(C(F)(F)F)cc2)cc1C(=O)NCc1ccc(N2CCC3(CCCCC3)CC2)cc1` [Compound (c), N-[4-(3-Aza-spiro[5.5]undec-3-yl)-phenylmethyl]-4-(4′-trifluoromethylbiphenyl-2-carbonylamino)-1-methyl-pyrrole-2-carboxylic acid amide], the “reduction of cholesterol in the plasma” value (fa/fa rats [1]; [8]) is reported as 58%, the “reduction of triglycerides in the plasma” value (fa/fa rats [1]; [8]) is reported as 94% and the “increase in the activity of ALT in the plasma” value (fa/fa rats [3]; [9]) is reported as 3.6 fold. The “increase in the activity of AST in the plasma” value (fa/fa rats [3]; [9]) was 4.5 fold, the “ALT [U/I], MW ± SEM” value (fa/fa rats [3]; [10]) was 232.9 ± 40.6 U/I and the “AST [U/I], MW ± SEM” value (fa/fa rats [3]; [10]) was 232.7 ± 34.2 U/I.

For `CC(C)OC(=O)C(C)(C)Oc1ccc(C(=O)c2ccc(Cl)cc2)cc1` [Fenofibrate, fenofibrate], the “reduction of cholesterol in the plasma” value (fa/fa rats [1]; [8]) was 15%, the “reduction of triglycerides in the plasma” value (fa/fa rats [1]; [8]) was 20% and the “increase of cholesterol in the plasma compared with the control group” value (fa/fa rats [1]; [11]) was 10%. The “increase of triglycerides in the plasma compared with the control group” value (fa/fa rats [1]; [11]) was 38%, the “ALT [U/I], MW ± SEM” value (fa/fa rats [3]; [10]) was 47.0 ± 4.9 U/I and the “AST [U/I], MW ± SEM” value (fa/fa rats [3]; [10]) was 30.3 ± 2.7 U/I. The “ALT [U/I], MW ± SEM” value (fa/fa rats [3]; [7]) was 44.7 ± 5.3 U/I and the “AST [U/I], MW ± SEM” value (fa/fa rats [3]; [7]) was 33.5 ± 3.7 U/I.

In the case of `CC(C)(Oc1ccc(CCNC(=O)c2ccc(Cl)cc2)cc1)C(=O)O` [bezafibrate], the “lowering of cholesterol in the plasma compared with the control group” value (fa/fa rats [1]) is reported as 47% and the “lowering of triglycerides in the plasma compared with the control group” value (fa/fa rats [1]) is reported as 56%.
